{"source": "patent US7495028B2", "about": "“R-bambuterol, its preparation and therapeutic uses” (priority 2002, dated 2009)", "key": {"[1]": {"test": "Serum concentration of active parent form (terbutaline) after oral dosing", "type": "in vivo, guinea pig", "conditions": "guinea pigs, 8 mg/kg oral, four hours later", "procedure": "Based on the pharmacokinetic studies of racemic bambuterol hydrochloride, about 50% of absorbed bambuterol is hydrolyzed to terbutaline, the active-parent form, in plasma. There is little cholinesterase in the lung strip preparation, so neither the test compound nor racemic bambuterol has significant effects. In order to test the compound of invention in vitro on isolated guinea-pig lung tissue, R-bambuterol and racemic bambuterol were administrated orally to guinea pigs at a dose of 8 mg/kg. Four hours later, blood was collected from the animals, and the serum containing the active parent form of the test compounds were prepared. The concentration of the active parent form, i.e. terbutaline, in serum measured using BPLC, was 64-70 ng/ml in the animal treated with R-bambuterol and 62-69 ng/ml in the animal treated with racemic bambuterol. The serum containing the active form of test compound was then added into the organ in a certain volume, so that the final concentration of the active forms of test compounds was 0.25 ng/ml in the organ bath. Concentration-response relationships were obtained using a cumulative dose schedule by adding the same volume of the serum into the organ bath. The test using the serum containing the active form of racemic bambuterol was done in parallel with the test compound in the same manner as described above."}, "[2]": {"tested_on": "sensitized conscious guinea pigs exposed to aerosol ovalbumin", "test": "Protection against allergic bronchospasm in ovalbumin-sensitized conscious guinea pigs", "type": "in vivo, guinea pig", "procedure": "Test method: Guinea pigs (Dunkin-Hartley strain, 200±10 g, equal sexes) were used in this study. Ovalbumin (5%) solution was injected into guinea pigs subcutaneously and intraperitoneally to sensitize the animals. Male and female sensitized animals were kept separately for 14 days, and food and water was available ad libitum. On day 14 after sensitization, animals were randomized into groups of 8 each. The animals were treated orally with saline (control) or various concentrations of R-bambuterol or racemic bambuterol in saline. Four hours after the treatment, each animal was restrained in a glass chamber. After stabilization the animal was exposed to an aerosol of ovalbumin generated by a nebulizer from a 5% solution of ovalbumine at a rate of 0.5 ml/min for a period of 15 seconds. The animal was removed from the chamber, and the behavior of the animal was monitored. The number of the sensitized animals which collapsed were counted, and the latency time, i.e. the time from the exposure to aerosol ovalbumin to the collapse of the animal, was recorded."}}, "data": [{"compound": "CN(C)C(=O)Oc1cc(OC(=O)N(C)C)cc(C(O)CNC(C)(C)C)c1", "note": "(centres unmarked) [RS-bambuterol, bambuterol]", "values": [{"measurement": "Concentration of the active parent form, terbutaline, in serum", "setting": "[1]", "value": "62 to 69", "unit": "ng/mL"}, {"measurement": "% collapsed", "setting": "[2]; 1 mg/kg oral", "value": 75, "unit": "%"}, {"measurement": "Latency time", "setting": "[2]; 1 mg/kg oral", "value": "156 ± 38", "unit": "s"}, {"measurement": "Number collapsed", "setting": "[2]; 1 mg/kg oral (n = 8), four hours before aerosol ovalbumin", "value": 6}, {"measurement": "% collapsed", "setting": "[2]; 4 mg/kg oral", "value": 38, "unit": "%"}, {"measurement": "Latency time", "setting": "[2]; 4 mg/kg oral", "value": "174 ± 21", "unit": "s"}, {"measurement": "Number collapsed", "setting": "[2]; 4 mg/kg oral (n = 8)", "value": 3}, {"measurement": "% collapsed", "setting": "[2]; 8 mg/kg oral", "value": 25, "unit": "%"}, {"measurement": "Number collapsed", "setting": "[2]; 8 mg/kg oral (n = 8)", "value": 2}, {"measurement": "Latency time", "setting": "[2]; 8 mg/kg oral, listed as Racemic bambuterol", "value": "316 ± 36", "unit": "s"}, {"measurement": "Latency time", "setting": "[2]; 8 mg/kg oral, listed as racemic bambuterol", "value": "316 ± 36", "unit": "s"}]}]}
